# Source: patent US20210023065A1, “AMPHIPHILIC THIOL COMPOUNDS AND USES THEREOF” (THE REGENTS OF THE UNIVERSITY OF CALIFORNIA, priority 2018, published 2021)
# Tests used:
# [1] = AMD model reaction with S-palmitoyl MESNA (HPLC/ELSD/MS); settings: 5 mM each reactant, NaH2PO4 buffer 200 mM pH 7.1, 10 mM TCEP, 25° C.
# Procedure: The reaction was stirred at 25° C. and aliquots taken at the specified time points and subjected to HPLC/ELSD/MS analysis (Eclipse Plus C8 analytical column, 50-95% MeOH in H2O with 0.1% TFA, 0-7 min; 95% MeOH in H2O with 0.1% TFA, 7 min-end).
# endogenous HRas = molecular target: T1, endogenous HRas (Homo sapiens, UniProt P01112); assay: Acyl resin-assisted capture detection of HRas palmitoylation in HeLa cells; assay type: cell-based; settings: HeLa cells
# T1 construct: endogenous in cells; host or cells: HeLa
# Procedure: HeLa cells were grown to confluency in 10 cm plates. Stock solutions of compounds were prepared in DMSO as before and diluted to the final indicated concentration in 5.5 mL of OptiMEM media before adding to cells. Cells were incubated at 37° C. for 20 min and then media removed and 3 mL of HBSS added to each plate. Cells were detached using a cell scraper, pelleted by centrifugation at 1,000 rcf for 5 min and the pellet processed using a CAPTUREome S-Palmitoylated Protein Kit (Badrilla, UK) according to the manufacturer's protocol. Samples were resolved by electrophoresis using 4-20% SDS-polyacrylamide gels (Bio-Rad) under denaturing and reducing conditions. Proteins were then electrotransferred to a PVDF membrane (Bio-Rad). The membrane was blocked with 3% BSA and then subjected to immunoblot analysis using Anti-GTPase HRAS antibody (ab97488) (Abcam), Calnexin Antibody (2433S) (Cell Signaling Technology), Gα(i) Antibody (5290S) (Cell Signaling Technology), SNAP25 Antibody (5308S) (Cell Signaling Technology), Flotillin-2 Antibody (3436S) (Cell Signaling Technology), CD44 Antibody (3570S) (Cell Signaling Technology), Lyric/Metadherin Antibody (14065S) (Cell Signaling Technology), Flotillin-1 Antibody (3253S) (Cell Signaling Technology) and secondary goat anti-rabbit IgG-HRP (sc-2030) (Santa Cruz Biotechnology) or goat anti-mouse IgG HRP (ThermoFisher). Chemiluminescent detection was performed by using SuperSignal West Pico PLUS chemiluminescent substrate (ThermoFisher) according to the manufacturer's instructions.
# Assays were performed in 3 biological replicates. Each replicate involved the analysis of 4 to 5 conditions side-by-side. Western blots were analyzed using ImageJ^1. The intensity of the protein band in each cleaved bound fraction (palmitoylated protein fraction) was normalized to the intensity of the corresponding input fraction (total protein fraction). The values within individual S 4 replicates were normalized to the control or vehicle condition and reported as means±SD. An unpaired t test was performed to determine the significance between means.
# flotillin-1 = molecular target: T2, flotillin-1 (Homo sapiens, UniProt O75955); assay: Acyl resin-assisted capture detection of flotillin-1 palmitoylation in HeLa cells; assay type: cell-based; settings: 1.25 μmol/10^7 cells, relative to vehicle
# T2 construct: we detected the palmitoylation levels of eight known palmitoylated proteins after treatment with 1; endogenous in cells; host or cells: HeLa
# T2 sequence (O75955 1-427): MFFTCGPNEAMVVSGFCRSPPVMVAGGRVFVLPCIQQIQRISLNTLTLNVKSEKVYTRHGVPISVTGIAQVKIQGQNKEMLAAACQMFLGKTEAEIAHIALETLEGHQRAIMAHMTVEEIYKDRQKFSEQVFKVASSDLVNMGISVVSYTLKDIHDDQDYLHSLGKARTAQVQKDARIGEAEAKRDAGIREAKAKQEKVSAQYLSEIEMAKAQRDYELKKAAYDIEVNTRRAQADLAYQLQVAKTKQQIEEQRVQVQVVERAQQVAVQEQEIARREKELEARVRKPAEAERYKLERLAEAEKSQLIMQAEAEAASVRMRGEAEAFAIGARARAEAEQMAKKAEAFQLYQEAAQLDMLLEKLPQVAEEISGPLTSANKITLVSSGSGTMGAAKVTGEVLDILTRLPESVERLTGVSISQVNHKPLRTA
# Procedure: (§1) HeLa cells were grown to confluency in 10 cm plates. Stock solutions of compounds were prepared in DMSO as before and diluted to the final indicated concentration in 5.5 mL of OptiMEM media before adding to cells. Cells were incubated at 37° C. for 20 min and then media removed and 3 mL of HBSS added to each plate. Cells were detached using a cell scraper, pelleted by centrifugation at 1,000 rcf for 5 min and the pellet processed using a CAPTUREome S-Palmitoylated Protein Kit (Badrilla, UK) according to the manufacturer's protocol. Samples were resolved by electrophoresis using 4-20% SDS-polyacrylamide gels (Bio-Rad) under denaturing and reducing conditions. Proteins were then electrotransferred to a PVDF membrane (Bio-Rad). […]
# (§2) Assays were performed in 3 biological replicates. […] Western blots were analyzed using ImageJ^1. […]
# calnexin = molecular target: T3, calnexin (Homo sapiens, UniProt P27824); assay: Acyl resin-assisted capture detection of calnexin palmitoylation in HeLa cells; assay type: cell-based; settings: 1.25 μmol/10^7 cells, relative to vehicle
# T3 construct: we detected the palmitoylation levels of eight known palmitoylated proteins after treatment with 1; endogenous in cells; host or cells: HeLa
# T3 sequence (P27824 21-592): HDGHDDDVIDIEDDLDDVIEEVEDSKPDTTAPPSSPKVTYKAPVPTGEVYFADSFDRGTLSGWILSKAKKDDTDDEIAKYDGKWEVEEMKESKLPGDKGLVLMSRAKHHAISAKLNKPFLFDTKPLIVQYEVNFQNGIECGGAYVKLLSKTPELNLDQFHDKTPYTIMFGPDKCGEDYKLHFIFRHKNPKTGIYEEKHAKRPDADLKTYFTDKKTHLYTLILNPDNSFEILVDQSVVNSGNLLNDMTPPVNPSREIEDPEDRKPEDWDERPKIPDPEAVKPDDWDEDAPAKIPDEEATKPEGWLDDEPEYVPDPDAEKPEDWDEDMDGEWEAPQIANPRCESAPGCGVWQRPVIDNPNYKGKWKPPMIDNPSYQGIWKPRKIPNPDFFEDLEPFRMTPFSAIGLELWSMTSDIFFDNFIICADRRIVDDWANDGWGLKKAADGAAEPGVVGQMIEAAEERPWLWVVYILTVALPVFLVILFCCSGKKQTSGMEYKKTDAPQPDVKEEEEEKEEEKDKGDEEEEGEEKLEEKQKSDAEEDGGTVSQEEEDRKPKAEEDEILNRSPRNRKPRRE
# Procedure: as §1, §2
# ERK1/2 (pY204/pY187) = assay: Detection of ERK1/2 phosphorylation in T24 cells (western blot); assay type: cell-based, human; settings: T24 cells (oncogenic HRas mutation), 1.25 μmol/10^7 cells, 1 h
# Procedure: T24 cells were grown to confluency in 6 cm plates. Stock solutions of compounds were prepared in DMSO as before and diluted to the final indicated concentration in 2 mL of OptiMEM media before adding to cells. Cells were incubated at 37° C. for 1 h and then media removed and 1.5 mL of HBSS added to each plate. Cells were detached using a cell scraper, pelleted by centrifugation at 1,000 rcf for 5 min and the pellet processed using MPER™ Mammalian Protein Extraction Reagent (ThermoFisher) with the addition of Halt Protease Inhibitor Cocktail (ThermoFisher) and 1 mM sodium orthovanadate. Samples were resolved by electrophoresis using 4-20% SDS-polyacrylamide gels (Bio-Rad) under denaturing and reducing conditions. Proteins were then electrotransferred to a PVDF membrane (Bio-Rad). The membrane was blocked with 3% BSA and then subjected to immunoblot analysis using AKT/MAPK Signaling Pathway Antibody Cocktail (ab151279) (Abcam) and secondary goat anti-rabbit IgG-HRP (sc-2030) (Santa Cruz Biotechnology). Chemiluminescent detection was performed by using SuperSignal West Pico PLUS chemiluminescent substrate (ThermoFisher) according to the manufacturer's instructions.
# Assays were performed in 3 biological replicates. Western blots were analyzed using ImageJl. The intensity of the protein band in each condition was normalized to the intensity of the corresponding loading control (Rab11). […]
# T1 sequence (P01112 whole entry): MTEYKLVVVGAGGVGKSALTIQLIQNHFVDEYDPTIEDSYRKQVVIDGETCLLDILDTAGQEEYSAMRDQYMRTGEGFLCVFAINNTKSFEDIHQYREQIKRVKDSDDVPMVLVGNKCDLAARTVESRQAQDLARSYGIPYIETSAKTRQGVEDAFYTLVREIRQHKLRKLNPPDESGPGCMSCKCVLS
smiles,measurement,setting,value
"CCCCCCCCNC(=O)[C@@H](N)CS [compound 1, H2N-L-Cys-Oct]","reaction with MESNA thiopalmitate 3 (cleavage of model S-palmitoyl group, ligation product 4)",[1],proceeded rapidly and irreversibly
same,reduction of palmitoylation level of HRas,"endogenous HRas; 1.25 μmol/10^7 cells, relative to vehicle",> 80%
same,depalmitoylation of HRas in the presence of palmostatin B (PB),"endogenous HRas; 1.25 μmol/10^7 cells, with APT-1/2 inhibitor PB",efficiently depalmitoylated HRas
same,HRas palmitoylation over a range of concentrations,"endogenous HRas; 0.31-1.25 μmol/10^7 cells, 20 min",decreased in a dose-dependent manner
same,depalmitoylation of HRas,"endogenous HRas; 20 min, 1 at 1.25 μmol/10^7 cells, same experiments with TCEP alone or compound 2",near complete depalmitoylation
same,reduction of palmitoylation level of flotillin-1,flotillin-1,19-40%
same,reduction of palmitoylation level of calnexin,calnexin,19-40%
same,ERK1/2 phosphorylation,ERK1/2 (pY204/pY187),near complete abrogation
